Measured values published in US8916570B2 (The United States of America, as represented by the …, priority 2008, dated 2014).
Residue numbers refer to the chain shown, from its start. Like-named read-outs stand apart in the source and are kept apart here. Marks after values point to notes of the source that are not given here.

What was measured:
rat A1 AR = target: T1, rat A1 AR (Rattus norvegicus, UniProt P25099); settings: species R (rat); data from Lee et al.; cited from earlier work
T1 sequence (P25099 1-326): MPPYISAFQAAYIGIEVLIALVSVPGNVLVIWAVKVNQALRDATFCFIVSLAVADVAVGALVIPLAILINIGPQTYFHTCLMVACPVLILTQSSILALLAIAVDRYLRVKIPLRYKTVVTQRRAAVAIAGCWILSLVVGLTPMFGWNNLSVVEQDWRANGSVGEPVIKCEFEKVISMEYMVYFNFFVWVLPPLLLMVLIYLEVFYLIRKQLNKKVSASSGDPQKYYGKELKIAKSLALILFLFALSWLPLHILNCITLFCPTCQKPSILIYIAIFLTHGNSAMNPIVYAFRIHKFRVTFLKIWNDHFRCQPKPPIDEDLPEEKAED

[1] = target: T2, human A2A adenosine receptor (Homo sapiens, UniProt P29274); test: Radioligand binding, human A2A AR (Table 1); settings: read-out: A2A Ki; species H (human)
hA1AR = target: T3, hA1AR (Homo sapiens, UniProt P30542); settings: values from the literature (footnotes c, d); read-out: Affinity (Ki, nM) hA1; cited from earlier work
T3 construct: expressed in transfected cells; host or cells: CHO
T3 sequence (P30542 1-326): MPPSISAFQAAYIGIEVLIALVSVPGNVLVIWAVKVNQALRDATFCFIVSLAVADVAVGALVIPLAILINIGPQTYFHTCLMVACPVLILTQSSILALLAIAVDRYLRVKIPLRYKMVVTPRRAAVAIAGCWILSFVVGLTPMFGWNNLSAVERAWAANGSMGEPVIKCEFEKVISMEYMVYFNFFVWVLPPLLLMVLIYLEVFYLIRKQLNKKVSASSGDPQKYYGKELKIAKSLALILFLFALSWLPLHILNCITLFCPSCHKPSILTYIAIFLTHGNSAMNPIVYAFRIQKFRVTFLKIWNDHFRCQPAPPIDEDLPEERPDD

[2] = target: T4, mouse A1 adenosine receptor (Mus musculus, UniProt Q60612); test: Competition radioligand binding, mouse A1 AR, HEK293 membranes (Table 1); settings: read-out: A1 Ki; species M (mouse); [125I]I-AB-MECA; mean ± SEM
T4 sequence (Q60612 1-326): T1 sequence (P25099 1-326) with V151E, D155A, R157I, D316E, L319I, E325D

mA1AR = target: T5, mA1AR (Mus musculus, UniProt Q60612); settings: values from Melman et al.; read-out: Affinity (Ki, nM) mA1; cited from earlier work
T5 construct: expressed in transfected cells
T5 sequence (Q60612 1-326): T1 sequence (P25099 1-326) with V151E, D155A, R157I, D316E, L319I, E325D

rat A2A AR = rat A2A AR (Rattus norvegicus, UniProt P30543); settings: species R (rat); data from Lee et al.; cited from earlier work
hA2AAR = target: T6, hA2AAR (Homo sapiens, UniProt P29274); settings: cited from earlier work
T6 construct: expressed in transfected cells

rat A3 AR [3] = target: T7, rat A3 AR (Rattus norvegicus, UniProt P28647); test: Radioligand binding, rat A3 AR (Table 1); settings: species R (rat)
T7 sequence (P28647 1-320): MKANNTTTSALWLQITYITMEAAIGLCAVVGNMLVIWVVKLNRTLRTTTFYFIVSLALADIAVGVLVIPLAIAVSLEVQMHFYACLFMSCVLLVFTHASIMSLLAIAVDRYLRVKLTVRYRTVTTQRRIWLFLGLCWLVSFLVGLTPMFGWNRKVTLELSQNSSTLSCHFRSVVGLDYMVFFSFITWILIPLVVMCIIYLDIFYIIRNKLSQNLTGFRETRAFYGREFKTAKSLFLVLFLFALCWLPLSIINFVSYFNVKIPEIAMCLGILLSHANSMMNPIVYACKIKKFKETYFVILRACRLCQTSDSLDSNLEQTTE

[4] = target: mouse A2A adenosine receptor (Mus musculus, UniProt Q60613); test: Competition radioligand binding, mouse A2A AR, HEK293 membranes (Table 1); settings: read-out: A2A Ki; species M (mouse); [3H]CGS21680
mA2AAR = target: T8, mA2AAR (Mus musculus, UniProt Q60613); settings: values from Melman et al.; read-out: Affinity (Ki, nM) mA2A; cited from earlier work
T8 construct: expressed in transfected cells

[5] = target: T9, mouse A3 adenosine receptor (Mus musculus, UniProt Q61618); test: Competition radioligand binding, mouse A3 AR, HEK293 membranes (Table 1); settings: for Ki: read-out: A3 Ki, species M (mouse), [125I]I-AB-MECA
T9 sequence (Q61618 1-319): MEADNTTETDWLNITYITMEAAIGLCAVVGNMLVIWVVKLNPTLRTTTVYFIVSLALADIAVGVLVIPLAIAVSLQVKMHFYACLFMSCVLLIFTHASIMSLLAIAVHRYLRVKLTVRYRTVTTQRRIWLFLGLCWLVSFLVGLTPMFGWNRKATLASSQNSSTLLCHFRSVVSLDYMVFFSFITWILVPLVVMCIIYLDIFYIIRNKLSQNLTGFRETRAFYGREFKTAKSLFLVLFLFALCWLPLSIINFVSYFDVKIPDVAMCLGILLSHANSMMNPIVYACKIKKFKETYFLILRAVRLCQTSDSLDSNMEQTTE

mA3AR = target: T10, mA3AR (Mus musculus, UniProt Q61618); settings: values from Melman et al.; read-out: Affinity (Ki, nM) mA3; cited from earlier work
T10 construct: expressed in transfected cells
T10 sequence (Q61618 1-319): T9 sequence (Q61618 1-319)

hA3AR = target: T11, hA3AR (Homo sapiens, UniProt P0DMS8); settings: at 10 μM vs maximal effect of 51 (= 100%); values from the literature; cited from earlier work
T11 construct: expressed in transfected cells; host or cells: CHO
T11 sequence (P0DMS8 1-318): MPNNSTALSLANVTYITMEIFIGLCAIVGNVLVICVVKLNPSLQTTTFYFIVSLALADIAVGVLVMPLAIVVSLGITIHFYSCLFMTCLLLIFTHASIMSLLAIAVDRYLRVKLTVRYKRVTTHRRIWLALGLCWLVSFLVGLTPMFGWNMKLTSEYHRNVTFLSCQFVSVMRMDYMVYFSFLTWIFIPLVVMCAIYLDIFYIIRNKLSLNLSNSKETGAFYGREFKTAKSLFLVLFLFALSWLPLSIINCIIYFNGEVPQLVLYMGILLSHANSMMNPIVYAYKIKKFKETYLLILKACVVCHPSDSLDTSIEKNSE

[6] = target: T12, human A1 adenosine receptor (Homo sapiens, UniProt P30542); test: Radioligand binding, human A1 AR, CHO membranes (Table 1); settings: read-out: A1 Ki; species H (human)
T12 sequence (P30542 1-326): T3 sequence (P30542 1-326)

human A1 receptors = target: T13, human A1 receptors (Homo sapiens, UniProt P30542); test: Binding at human A1 receptor, CHO membranes (Example 4); settings: read-out: Affinity (Ki nM) A1
T13 construct: expressed in transfected cells; host or cells: CHO
T13 sequence (P30542 1-326): T3 sequence (P30542 1-326)

human A2A receptors = target: T14, human A2A receptors (Homo sapiens, UniProt P29274); test: Binding at human A2A receptor, HEK-293 membranes (Example 4); settings: read-out: Affinity (Ki nM) A2A
T14 construct: expressed in transfected cells

[7] = target: T12, human A1 adenosine receptor; design: expressed in transfected cells; host or cells: CHO; settings: species H (human); data from Tchilibon et al. or Kim et al.; cited from earlier work
[8] = target: T2, human A2A adenosine receptor; design: expressed in transfected cells; settings: species H (human), cited from earlier work
rat A3 AR [9] = target: T7, rat A3 AR; settings: species R (rat); data from Tchilibon et al. / Lee et al.; cited from earlier work

T2 sequence (P29274 whole entry): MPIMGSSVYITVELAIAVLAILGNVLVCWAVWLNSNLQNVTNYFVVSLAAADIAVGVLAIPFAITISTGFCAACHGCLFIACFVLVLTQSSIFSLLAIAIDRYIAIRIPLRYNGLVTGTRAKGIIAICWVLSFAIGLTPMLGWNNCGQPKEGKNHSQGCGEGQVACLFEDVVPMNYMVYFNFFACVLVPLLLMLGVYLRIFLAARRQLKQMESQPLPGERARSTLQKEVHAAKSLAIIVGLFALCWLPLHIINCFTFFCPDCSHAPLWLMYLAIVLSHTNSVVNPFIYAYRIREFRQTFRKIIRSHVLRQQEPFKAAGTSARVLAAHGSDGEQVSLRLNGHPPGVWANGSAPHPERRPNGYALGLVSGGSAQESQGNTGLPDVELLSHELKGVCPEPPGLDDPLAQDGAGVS
T6 sequence (P29274 whole entry): as above
Sequence of rat A2A AR (P30543 whole entry): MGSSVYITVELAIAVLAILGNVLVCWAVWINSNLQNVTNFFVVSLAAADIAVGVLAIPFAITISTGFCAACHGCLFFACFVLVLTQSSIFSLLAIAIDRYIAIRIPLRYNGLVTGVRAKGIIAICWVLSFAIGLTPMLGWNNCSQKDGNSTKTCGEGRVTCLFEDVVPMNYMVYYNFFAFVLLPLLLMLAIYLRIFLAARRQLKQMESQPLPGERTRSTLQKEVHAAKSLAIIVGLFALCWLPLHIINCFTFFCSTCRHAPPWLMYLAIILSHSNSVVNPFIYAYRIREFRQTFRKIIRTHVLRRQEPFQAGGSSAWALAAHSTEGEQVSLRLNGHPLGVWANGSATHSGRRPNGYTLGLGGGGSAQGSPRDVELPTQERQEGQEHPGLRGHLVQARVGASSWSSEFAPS
Sequence of mouse A2A adenosine receptor (Q60613 whole entry): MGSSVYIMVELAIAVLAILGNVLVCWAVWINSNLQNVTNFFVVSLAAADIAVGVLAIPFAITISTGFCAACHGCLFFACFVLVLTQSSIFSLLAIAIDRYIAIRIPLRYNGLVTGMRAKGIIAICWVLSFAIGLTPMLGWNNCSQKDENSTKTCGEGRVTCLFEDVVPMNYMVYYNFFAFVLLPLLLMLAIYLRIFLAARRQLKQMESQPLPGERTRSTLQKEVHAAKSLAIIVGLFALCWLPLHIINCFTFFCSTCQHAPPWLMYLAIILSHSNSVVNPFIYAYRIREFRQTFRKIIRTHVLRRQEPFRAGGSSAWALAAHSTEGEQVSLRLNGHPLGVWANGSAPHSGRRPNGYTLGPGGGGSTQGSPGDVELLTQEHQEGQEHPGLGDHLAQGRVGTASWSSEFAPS
T14 sequence (P29274 whole entry): as the sequence (P29274 whole entry) above
T8 sequence (Q60613 whole entry): as the sequence (Q60613 whole entry) above

Row | SMILES | Ki [2] | Ki (rat A3 AR [3]) | Ki [4] | Ki [5] | Ki [6] | Ki (rat A1 AR) | Ki (hA1AR) | Ki (mA1AR) | Ki (rat A2A AR) | Ki (mA3AR) | also measured
1 | COc1ccc(OC)c(CNc2nc(Cl)nc3c2ncn3C2C(O)C(O)C3CC32)c1 (stereo not drawn) [Compound 111b, (1′R,2′R,3′S, 4′R,5′S)-4′-[2-Chloro-6-(2,5-dimethoxybenzylamino)purine]-2′,3′-O-dihydroxybicyclo-[3.1.0]hexane] |  |  |  |  |  |  |  |  |  |  | Ki (human A1 receptors): 3000 nM
2 | OC1C(O)C(n2cnc3c(NCc4cccc(Br)c4)nc(Cl)nc32)C2CC12 (stereo not drawn) [Compound 109b, (1′R,2′R,3′S, 4′R,5′S)-4′42-Chloro-6-(3-bromobenzylamino)purine-1-2′,3′-O-dihydroxybicyclo-[3.1.0]hexane] |  |  |  |  |  |  |  |  |  |  | Ki (human A2A receptors): 1600 nM

Further lines, with some results ahead:

Row | Ki [2] | Ki (rat A3 AR [3]) | Ki [4] | Ki [5] | Ki [6] | SMILES | Ki (rat A1 AR) | Ki (hA1AR) | Ki (mA1AR) | Ki (rat A2A AR) | Ki (mA3AR) | also measured
3 | 7.32 ± 1.5 nM | 1.1 nM | 5350 ± 860 nM | 0.8 ± 0.14 nM | 136 ± 22 nM | CNC(=O)[C@@]12C[C@@H]1[C@@H](n1cnc3c(NCc4cccc(I)c4)nc(Cl)nc31)[C@H](O)[C@@H]2O [Compound 15] | 83.9 nM | 136 ± 22 nM | 7.32 ± 1.5 nM | 1660 nM | 0.8 ± 0.14 nM | Ki [1]: 784 ± 97 nM; Ki (hA2AAR; values from the literature (footnotes c, d), read-out: Affinity (Ki, nM) hA2A): 784 ± 97 nM; Ki (mA2AAR): 5350 nM; % Efficacy hA3 (hA3AR): 100%
4 | 8.79 ± 0.12 nM | 0.76 nM | 6390 ± 870 nM | 0.9 ± 0.22 nM |  | CNC(=O)[C@@]12C[C@@H]1[C@@H](n1cnc3c(NCc4cccc(Br)c4)nc(Cl)nc31)[C@H](O)[C@@H]2O [Compound 14] |  |  |  |  |  | Ki [7]: 270 nM; Selectivity A1/A3 ([5]; mouse): 9.8; Ki ([8]; data from Tchilibon et al. or Kim et al.): 1300 nM
5 | 55.3 ± 6 nM |  |  | 49 ± 3.9 nM | 2010 ± 1700 nM | CNC(=O)[C@@]12C[C@@H]1[C@@H](n1cnc3c(NC)nc(Cl)nc31)[C@H](O)[C@@H]2O [Compound 12] | 805 nM | 2100 ± 1700 nM | 55.3 ± 6 nM | > 10000 nM | 49 ± 3.9 nM | Ki (rat A3 AR [9]): 160 ± 30 nM; % inhibition hA2A (hA2AAR; inhibition of radioligand binding at 10 μM, values from the literature): (6%); A2A % inhib. ([8]; percent inhibition at 10 μM, data from Tchilibon et al.): (6%)^d,f
